Among the data in patent publication US10829499B2, “Tetracyclic heterocycle compounds useful as HIV integrase inhibitors” (MERCK SHARP & DOHME CORP., priority 2016, dated 2020) are IC50 values, retold here.

Molecules are shown by their SMILES. Like-named read-outs stand apart in the source and are kept apart here.

For the assay, the system named is HIV-1 (NL4-3 strain). The experiment in a line: Assay for Inhibition of HIV Replication (kinetic assay, MT4-gag-GFP reporter cell line; VIKING). It counts as cell-based. The method, boiled down: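 MT4-gag-GFP cells infected with HIV-1 NL4-3 at low MOI for 24 h were seeded with compound (0.4% DMSO) in medium with 0%, 10% or 100% normal human serum. GFP-positive cells were counted at 24 and 48 h, and R0 was the 48 h/24 h ratio. Inhibition was scaled to DMSO and triple-drug controls, and IC50 came from 4-parameter fits.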

[1] abbreviates: MT4-GFP cells infected with HIV-1 NL4-3, 0% normal human serum (NHS), read-out: VIKING IP50 (nM) with 0% NHS.
The mark [2] stands for this setting: MT4-GFP cells infected with HIV-1 NL4-3, 100% normal human serum (NHS), read-out: VIKING IP50 (nM) with 100% NHS.
The mark [3] stands for this setting: Human immunodeficiency virus 1, NL43, MT4-GFP cells infected with HIV-1 NL4-3, 100% normal human serum (NHS), read-out: VIKING IP50 (nM) with 100% NHS.
Where [4] appears, read: Human immunodeficiency virus 1, NL43, MT4-GFP cells infected with HIV-1 NL4-3, 0% normal human serum (NHS), read-out: VIKING IP50 (nM) with 0% NHS.

As for `CN1CCCN2C(=O)c3c(O)c(=O)c(C(=O)NCc4cccc(Cl)c4F)c4n3C(CC4)C12` (single isomer, unassigned) [Compound 86], the IC50 was 0.426 nM under setting [1] and 9.17 nM under setting [2].

For the compound `O=C(NCc1ccc(F)cc1F)c1c2n3c(c(O)c1=O)C(=O)N1CCCCOC1C3CC2` (single isomer, unassigned) [Compound 71], the IC50 stood at 1.25 nM under setting [1] and 30.7 nM under setting [2].

As to `C[C@@H]1CN2C(=O)c3c(O)c(=O)c(C(=O)NCc4cccc(Cl)c4F)c4n3C(CC4)C2O1` (single isomer, unassigned) [Compound 39], the IC50 is, setting by setting: under setting [3], 8000 nM; under setting [1], 0.575 nM.

Turning to `CCNC1CC2C3OCCCN3C(=O)c3c(O)c(=O)c(C(=O)NCc4cccc(Cl)c4F)c1n32` (centres unmarked) [Compound 199], the IC50 by setting is: under setting [1], 7.12 nM; under setting [2], 42.9 nM.

For the compound `C[C@H]1CN(C)C2C3CCc4c(C(=O)NCc5cccc(Cl)c5F)c(=O)c(O)c(n43)C(=O)N21` (some centres unmarked) [Compound 110], the IC50 under setting [1] amounted to 0.733 nM and the IC50 under setting [2] came out at 67.8 nM.

In the case of `O=C(NCc1cccc(Cl)c1F)c1c2n3c(c(O)c1=O)C(=O)N1CCOC1C3CC2` (single isomer, unassigned) [Compound 3], the IC50 worked out at 0.478 nM under setting [4] and 372 nM under setting [2].

For the compound `O=C(NCc1ccccc1F)c1c2n3c(c(O)c1=O)C(=O)N1CCOC1C3CC2` (single isomer, unassigned) [Compound 13], the IC50 under setting [1] worked out at 0.827 nM and the IC50 under setting [2] is 5520 nM.

Consider `CCCN1C2C3CCc4c(C(=O)NCc5cccc(Cl)c5F)c(=O)c(O)c(n43)C(=O)N2C[C@@H]1C` (some centres unmarked) [Compound 107], for which the IC50 is, setting by setting: under setting [1], 2.82 nM; under setting [2], 272 nM.

In the case of `CCNC1CC2C3OCCCN3C(=O)c3c(O)c(=O)c(C(=O)NCc4cccc(F)c4F)c1n32` (centres unmarked) [Compound 185], the IC50 under setting [4] was determined as 11.7 nM and the IC50 under setting [3] stood at 1160 nM.

In the case of `O=C(NCc1ccc(F)cc1F)c1c2n3c(c(O)c1=O)C(=O)N1CCOC1C3CC2` (single isomer, unassigned) [Compound 6], the IC50 runs as follows: under setting [1], 0.825 nM; under setting [2], 7910 nM.

`O=C(NCc1cccc(Cl)c1F)c1c2n3c(c(O)c1=O)C(=O)N1CCOC1C3CC2` (single isomer, unassigned) [Compound 5]: the IC50 runs as follows: under setting [1], 0.409 nM; under setting [2], 2250 nM.

Turning to `O=C(NCc1c(F)cccc1F)c1c2n3c(c(O)c1=O)C(=O)N1CCOC1C3CC2` (single isomer, unassigned) [Compound 16], the IC50 by setting is: under setting [3], 8000 nM; under setting [1], 6.28 nM.

On to `CCNC1CC2C3OCCCN3C(=O)c3c(O)c(=O)c(C(=O)NCc4cccc(Cl)c4F)c1n32` (centres unmarked) [Compound 200], for which the IC50 is 10.1 nM under setting [1] and 67.3 nM under setting [2].

`O=C(NCc1ccc(F)cc1F)c1c2n3c(c(O)c1=O)C(=O)N1CCOC1C3CC2` (single isomer, unassigned) [Compound 7]: the IC50 is, setting by setting: under setting [1], 2.15 nM; under setting [2], 1410 nM.

Consider `C[C@H]1CNC2C3CCc4c(C(=O)NCc5ccc(F)cc5F)c(=O)c(O)c(n43)C(=O)N21` (some centres unmarked) [Compound 101], for which the IC50 under setting [1] came out at 1.99 nM and the IC50 under setting [2] stood at 23.4 nM.

Consider `CC(=O)N1C[C@H](C)N2C(=O)c3c(O)c(=O)c(C(=O)NCc4cccc(Cl)c4F)c4n3C(CC4)C12` (some centres unmarked) [Compound 120], for which the IC50 worked out at 1.19 nM under setting [1] and 24.5 nM under setting [2].

`C[C@H]1CNC2C3CCc4c(C(=O)NCc5cccc(Cl)c5F)c(=O)c(O)c(n43)C(=O)N21` (some centres unmarked) [Compound 89]: the IC50 is, setting by setting: under setting [1], 0.709 nM; under setting [2], 120 nM.

Take `CN1CCN2C(=O)c3c(O)c(=O)c(C(=O)NCc4ccc(F)cc4F)c4n3C(CC4)C12C` (centres unmarked) [Compound 140]: the IC50 is, setting by setting: under setting [1], 0.557 nM; under setting [2], 11.3 nM.

With `O=C(NCc1ccc(F)cc1)c1c2n3c(c(O)c1=O)C(=O)N1C4CCC(C4)OC1C3CC2` (centres unmarked) [Compound 163], the IC50 was determined as 4.32 nM under setting [1] and 1660 nM under setting [2].

In the case of `CC(C)N1C2C3CCc4c(C(=O)NCc5cccc(Cl)c5F)c(=O)c(O)c(n43)C(=O)N2C[C@@H]1C` (some centres unmarked) [Compound 106], the IC50 runs as follows: under setting [4], 3.68 nM; under setting [3], 88.9 nM.

With `CCCN1C[C@H](C)N2C(=O)c3c(O)c(=O)c(C(=O)NCc4cccc(Cl)c4F)c4n3C(CC4)C12` (some centres unmarked) [Compound 113], the IC50 is 3.58 nM under setting [4] and 291 nM under setting [3].

For `O=C(NCc1c(F)cccc1F)c1c2n3c(c(O)c1=O)C(=O)N1CCOC1C3CC2` (single isomer, unassigned) [Compound 17], the IC50 is, setting by setting: under setting [1], 7.09 nM; under setting [2], 7940 nM.

For `CCNC1CC2C3OCCCN3C(=O)c3c(O)c(=O)c(C(=O)NCc4c(F)cc(F)cc4F)c1n32` (centres unmarked) [Compound 178], the IC50 reads like this: under setting [1], 16 nM; under setting [2], 6090 nM.

With `CCNC1CC2C3OCCCN3C(=O)c3c(O)c(=O)c(C(=O)NCc4cccc(Cl)c4F)c1n32` (centres unmarked) [Compound 198], the IC50 was 5.29 nM under setting [1] and 96.9 nM under setting [2].

For the compound `O=C(NCc1ccc(F)cc1F)c1c2n3c(c(O)c1=O)C(=O)N1CCCCOC1C3CC2` (single isomer, unassigned) [Compound 69], the IC50 runs as follows: under setting [4], 1.36 nM; under setting [2], 349 nM.

For `O=C(NCc1ccc(F)cc1F)c1c2n3c(c(O)c1=O)C(=O)N1CCCOC1C3CC2` (single isomer, unassigned) [Compound 55], the IC50 under setting [4] was 1.03 nM and the IC50 under setting [2] stood at 39.5 nM.

As for `C[C@H]1CN2C(=O)c3c(O)c(=O)c(C(=O)NCc4cccc(Cl)c4F)c4n3C(CC4)C2N1C` (some centres unmarked) [Compound 103], the IC50 under setting [1] stood at 1.45 nM and the IC50 under setting [2] amounted to 15.4 nM.

`CC12OCCCN1C(=O)c1c(O)c(=O)c(C(=O)NCc3ccc(F)cc3F)c3n1C2CC3` (centres unmarked) [Compound 133]: the IC50 by setting is: under setting [4], 0.93 nM; under setting [2], 617 nM.

Consider `C[C@H]1CCOC2C3CCc4c(C(=O)NCc5ccc(F)cc5F)c(=O)c(O)c(n43)C(=O)N21` (single isomer, unassigned) [Compound 63], for which the IC50 turned out to be 3.09 nM under setting [1] and 127 nM under setting [2].

On to `O=C(NCc1cccc(F)c1F)c1c2n3c(c(O)c1=O)C(=O)N1C4CCC(C4)OC1C3CC2` (centres unmarked) [Compound 164], for which the IC50 was 4.89 nM under setting [4] and 1390 nM under setting [2].

`CN1CCCN2C(=O)c3c(O)c(=O)c(C(=O)NCc4cccc(Cl)c4F)c4n3C(CC4)C12` (single isomer, unassigned) [Compound 85]: the IC50 stood at 0.703 nM under setting [1] and 17.8 nM under setting [2].

For the compound `O=C(NCc1ccc(F)c(Cl)c1F)c1c2n3c(c(O)c1=O)C(=O)N1C4CCC(C4)OC1C3CC2` (centres unmarked) [Compound 156], the IC50 under setting [1] is 11.8 nM and the IC50 under setting [2] was found to be 5270 nM.

Take `C[C@H]1COC2C3CCc4c(C(=O)NCc5cccc(Cl)c5F)c(=O)c(O)c(n43)C(=O)N21` (single isomer, unassigned) [Compound 30]: the IC50 is 0.536 nM under setting [1] and 838 nM under setting [2].

In the case of `CCN1C[C@H](C)N2C(=O)c3c(O)c(=O)c(C(=O)NCc4cccc(Cl)c4F)c4n3C(CC4)C12` (some centres unmarked) [Compound 112], the IC50 runs as follows: under setting [1], 0.806 nM; under setting [2], 40.4 nM.

For `CCNC1C[C@@H]2[C@H]3OC4CCC(C4)N3C(=O)c3c(O)c(=O)c(C(=O)NCc4ccc(F)cc4F)c1n32` (some centres unmarked) [Compound 175], the IC50 under setting [1] came to 20.8 nM and the IC50 under setting [2] was 78.8 nM.

For the compound `CCCN1C[C@H](C)N2C(=O)c3c(O)c(=O)c(C(=O)NCc4cccc(Cl)c4F)c4n3C(CC4)C12` (some centres unmarked) [Compound 114], the IC50 came out at 6.36 nM under setting [1] and 175 nM under setting [2].

Take `C[C@H]1COC2C3CCc4c(C(=O)NCc5cccc(Cl)c5F)c(=O)c(O)c(n43)C(=O)N21` (single isomer, unassigned) [Compound 31]: the IC50 is, setting by setting: under setting [1], 0.418 nM; under setting [2], 197 nM.

With `O=C(NCc1ccc(F)c(Cl)c1F)c1c2n3c(c(O)c1=O)C(=O)N1C4CCC(C4)OC1C3CC2` (centres unmarked) [Compound 159], the IC50 reads like this: under setting [1], 5.85 nM; under setting [2], 89.3 nM.

Take `C[C@H]1CN2C(=O)c3c(O)c(=O)c(C(=O)NCc4ccc(F)cc4F)c4n3C(CC4)C2N1` (some centres unmarked) [Compound 95]: the IC50 was determined as 2.59 nM under setting [4] and 124 nM under setting [3].

For `COC1CC2C3OCCN3C(=O)c3c(O)c(=O)c(C(=O)NCc4ccc(F)cc4F)c1n32` (single isomer, unassigned) [Compound 76], the IC50 was determined as 1.01 nM under setting [1] and 17.8 nM under setting [2].

Regarding `C[C@H]1CN(S(C)(=O)=O)C2C3CCc4c(C(=O)NCc5cccc(Cl)c5F)c(=O)c(O)c(n43)C(=O)N21` (some centres unmarked) [Compound 117], the IC50 under setting [4] worked out at 3.78 nM and the IC50 under setting [3] was 130 nM.

Take `C[C@H]1COC2C3CCc4c(C(=O)NCc5cccc(Cl)c5F)c(=O)c(O)c(n43)C(=O)N21` (single isomer, unassigned) [Compound 29]: the IC50 was 0.412 nM under setting [4] and 3410 nM under setting [2].

With `O=C(NCc1ccc(F)cc1F)c1c2n3c(c(O)c1=O)C(=O)N1CCCOC1C3CC2` (single isomer, unassigned) [Compound 57], the IC50 under setting [1] is 0.919 nM and the IC50 under setting [2] worked out at 871 nM.

In the case of `O=C(NCc1ccc(F)cc1F)c1c2n3c(c(O)c1=O)C(=O)N1CCOC1C3CC2` (single isomer, unassigned) [Compound 8], the IC50 under setting [1] came to 1 nM and the IC50 under setting [2] is 245 nM.

As for `O=C(NCc1cccc(F)c1F)c1c2n3c(c(O)c1=O)C(=O)N1C4CCC(C4)OC1C3CC2` (centres unmarked) [Compound 167], the IC50 is 3.78 nM under setting [1] and 3390 nM under setting [2].

Regarding `CCNC1CC2C3OCCCN3C(=O)c3c(O)c(=O)c(C(=O)NCc4ccc(F)cc4F)c1n32` (centres unmarked) [Compound 203], the IC50 was 6.47 nM under setting [1] and 25.8 nM under setting [2].
